These results are taken from US11919901B2 (Syndax Pharmaceuticals, Inc., priority 2021, dated 2024).

For the experiment, the target named is Menin-MLL (Homo sapiens (Human), UniProt O00255). Nature of the experiment: Determination of binding constants (Ki) to Menin-MLL (HTRF). To be noted: HTRF, 0.25 nM H-FL-Menin, 3.2 nM FITC-MLL-4-43, 24 hr incubation; for Ki: read-out: Menin-MLL Ki HTRF Assay: Ki. (TR-FRET usually uses a lanthanide donor and a delayed reading to cut background.)
Menin-MLL, sequence (O00255 whole entry): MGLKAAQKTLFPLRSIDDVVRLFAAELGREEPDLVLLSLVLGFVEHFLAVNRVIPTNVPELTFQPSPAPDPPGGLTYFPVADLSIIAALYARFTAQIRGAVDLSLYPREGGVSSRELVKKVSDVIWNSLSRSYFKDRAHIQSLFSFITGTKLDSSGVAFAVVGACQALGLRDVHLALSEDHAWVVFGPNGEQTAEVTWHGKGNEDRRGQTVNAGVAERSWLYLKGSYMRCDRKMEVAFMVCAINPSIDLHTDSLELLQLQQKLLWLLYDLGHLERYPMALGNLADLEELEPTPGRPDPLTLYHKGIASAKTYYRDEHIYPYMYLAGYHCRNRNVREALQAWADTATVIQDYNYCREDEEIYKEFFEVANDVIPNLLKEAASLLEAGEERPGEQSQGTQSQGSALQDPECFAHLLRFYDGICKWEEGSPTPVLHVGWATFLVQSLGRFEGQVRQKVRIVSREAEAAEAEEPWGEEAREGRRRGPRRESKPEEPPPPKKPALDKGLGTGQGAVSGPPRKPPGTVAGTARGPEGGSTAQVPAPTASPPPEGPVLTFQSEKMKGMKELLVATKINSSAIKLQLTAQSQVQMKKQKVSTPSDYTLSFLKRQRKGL

`CC(C)N(C(=O)c1cc(F)ccc1Oc1nncnc1N1CC2(CCN(C[C@@H]3CC[C@@H](NS(=O)(=O)c4cnn(C)c4)CO3)CC2)C1)C(C)C` [Compound 197, 5-Fluoro-N,N-diisopropyl-2-((5-(7-(((2S,5R)-5-((1-methyl-1H-pyrazole)-4-sulfonamido)tetrahydro-2H-pyran-2-yl)methyl)-2,7-diazaspiro[3.5]nonan-2-yl)-1,2,4-triazin-6-yl)oxy)benzamide]: the Ki – broadly, the dissociation constant of the complex between target and ligand, obtained from inhibition or displacement – was less than 1 nM.
Consider `C[C@@H]1COC[C@@H](C)N1C(=O)c1cc(F)ccc1Oc1cncnc1N1CC2(CCN(C[C@@H]3CC[C@@H](NS(=O)(=O)C4COC4)CO3)CC2)C1` [Compound 32], for which the EC50 (as a rule, the concentration at which the effect is half-maximal) was less than 50 nM and the Ki is less than 1 nM.
For the molecule `C[C@@H]1COC[C@@H](C)N1C(=O)c1cc(F)ccc1Oc1cncnc1N1CC2(CCN(C[C@@H]3CC[C@@H](NS(=O)(=O)N4CCCC4)CO3)CC2)C1` [Compound 124, N-((3R,6S)-6-((2-(5-(2-((3R,5R)-3,5-Dimethylmorpholine-4-carbonyl)-4-fluorophenoxy)pyrimidin-4-yl)-2,7-diazaspiro[3.5]nonan-7-yl)methyl)tetrahydro-2H-pyran-3-yl)pyrrolidine-1-sulfonamide], the Ki was less than 1 nM.
Turning to `CCN(C(=O)c1cc(F)ccc1Oc1cncnc1N1CC2(CCN(C[C@@H]3CC[C@@H](NS(=O)(=O)N4CC(F)(F)C4)CO3)CC2)C1)C(C)C` [Compound 70, 2-((4-(7-(((2S,5R)-5-((3,3-Difluoroazetidine)-1-sulfonamido)tetrahydro-2H-pyran-2-yl)methyl)-2,7-diazaspiro[3.5]nonan-2-yl)pyrimidin-5-yl)oxy)-N-ethyl-5-fluoro-N-isopropylbenzamide], the EC50 is less than 50 nM and the inhibition constant (Ki) was less than 1 nM.
The corresponding values for `CCN(C(=O)c1cc(F)ccc1Oc1cncnc1N1CC2(CCN(C[C@@H]3CC[C@@H](NS(=O)(=O)c4ccccc4C)CO3)CC2)C1)C(C)C` [Compound 56, N-Ethyl-5-fluoro-N-isopropyl-2-((4-(7-(((2S,5R)-5-((2-methylphenyl)sulfonamido)tetrahydro-2H-pyran-2-yl)methyl)-2,7-diazaspiro[3.5]nonan-2-yl)pyrimidin-5-yl)oxy)benzamide] are less than 50 nM and less than 1 nM.
`C[C@@H]1COC[C@H](C)N1C(=O)c1cc(F)ccc1Oc1cncnc1N1CC2(CCN(C[C@@H]3CC[C@@H](NS(=O)(=O)NCC(F)(F)F)CO3)CC2)C1` [Compound 162, {[(3R,6S)-6-{[2-(5-{2-[(3R,5S)-3,5-Dimethylmorpholine-4-carbonyl]-4-fluorophenoxy}pyrimidin-4-yl)-2,7-diazaspiro[3.5]nonan-7-yl]methyl}oxan-3-yl]sulfamoyl}(2,2,2-trifluoroethyl)amine]: the Ki is less than 1 nM.
Consider `CC(C)N(CC(F)(F)F)C(=O)c1cc(F)ccc1Oc1nncnc1N1CC2(CCN(C[C@@H]3CC[C@@H](NS(=O)(=O)C4CC4)CO3)CC2)C1` [Compound 191, 2-((5-(7-(((2S,5R)-5-(Cyclopropanesulfonamido)tetrahydro-2H-pyran-2-yl)methyl)-2,7-diazaspiro[3.5]nonan-2-yl)-1,2,4-triazin-6-yl)oxy)-5-fluoro-N-isopropyl-N-(2,2,2-trifluoroethyl)benzamide], for which the Ki was less than 1 nM.
In the case of `CCN(C(=O)c1cc(F)ccc1Oc1cncnc1N1CC2(CCN(C[C@@H]3CC[C@@H](NC(=O)NCC4CC4)CO3)CC2)C1)C(C)C` [Compound 42, 2-((4-(7-(((2S,5R)-5-(3-(cyclopropylmethyl)ureido)tetrahydro-2H-pyran-2-yl)methyl)-2,7-diazaspiro[3.5]nonan-2-yl)pyrimidin-5-yl)oxy)-N-ethyl-5-fluoro-N-isopropylbenzamide], the EC50 is more than 100 nM and the Ki lay in the range of 1 to 1.5 nM.
Regarding `CC(C)N(CC(F)F)C(=O)c1cc(F)ccc1Oc1nncnc1N1CC2(CCN(C[C@@H]3CC[C@@H](NS(=O)(=O)C4CC4)CO3)CC2)C1` [Compound 186, 2-((5-(7-(((2S,5R)-5-(Cyclopropanesulfonamido)tetrahydro-2H-pyran-2-yl)methyl)-2,7-diazaspiro[3.5]nonan-2-yl)-1,2,4-triazin-6-yl)oxy)-N-(2,2-difluoroethyl)-5-fluoro-N-isopropylbenzamide], the Ki is less than 1 nM.
The same measure, in the same setting: the same measure for `C=CS(=O)(=O)N[C@@H]1CC[C@@H](CN2CCC3(CC2)CN(c2ncncc2Oc2ccc(F)cc2C(=O)N(CC)C(C)C)C3)OC1` [Compound 219, N-Ethyl-5-fluoro-N-isopropyl-2-((4-(7-(((2S,5R)-5-(vinylsulfonamido)tetrahydro-2H-pyran-2-yl)methyl)-2,7-diazaspiro[3.5]nonan-2-yl)pyrimidin-5-yl)oxy)benzamide]: less than 1 nM.
For `CC(C)N(C(=O)c1cc(F)ccc1Oc1cncnc1N1CC2(CCN(C[C@@H]3CC[C@@H](NS(=O)(=O)C4CCOCC4)CO3)CC2)C1)C(C)C` [Compound 79], the EC50 is less than 50 nM and the inhibition constant (Ki) was less than 1 nM.
Consider `CCCNS(=O)(=O)N[C@@H]1CC[C@@H](CN2CCC3(CC2)CN(c2ncncc2Oc2ccc(F)cc2C(=O)N(CC(F)F)C(C)C)C3)OC1` [Compound 151, N-(2,2-Difluoroethyl)-5-fluoro-N-isopropyl-2-((4-(7-(((2S,5R)-5-((N-propylsulfamoyl)amino)tetrahydro-2H-pyran-2-yl)methyl)-2,7-diazaspiro[3.5]nonan-2-yl)pyrimidin-5-yl)oxy)benzamide], for which the Ki is less than 1 nM.
Still for that read-out and setting: the same measure for `CC(C)N(C(=O)c1cc(F)ccc1Oc1cncnc1N1CC2(CCN(C[C@@H]3CC[C@@H](NS(=O)(=O)NCC(F)(F)F)CO3)CC2)C1)[C@@H]1CCOC1` [Compound 171, 5-Fluoro-N-isopropyl-N-((R)-tetrahydrofuran-3-yl)-2-((4-(7-(((2S,5R)-5-((N-(2,2,2-trifluoroethyl)sulfamoyl)amino)tetrahydro-2H-pyran-2-yl)methyl)-2,7-diazaspiro[3.5]nonan-2-yl)pyrimidin-5-yl)oxy)benzamide]: less than 1 nM.
For the molecule `COCCN(C(=O)c1cc(F)ccc1Oc1cncnc1N1CC2(CCN(C[C@@H]3CC[C@@H](NS(=O)(=O)c4ccccc4)CO3)CC2)C1)C(C)C` [Compound 254, 5-Fluoro-N-isopropyl-N-(2-methoxyethyl)-2-((4-(7-(((2S,5R)-5-(phenylsulfonamido)tetrahydro-2H-pyran-2-yl)methyl)-2,7-diazaspiro[3.5]nonan-2-yl)pyrimidin-5-yl)oxy)benzamide], the EC50 is less than 50 nM and the Ki is less than 1 nM.
With `C[C@@H]1COC[C@@H](C)N1C(=O)c1cc(F)ccc1Oc1cncnc1N1CC2(CCN(C[C@@H]3CC[C@@H](NS(=O)(=O)N(C)C4CC4)CO3)CC2)C1` [Compound 129, N-{[(3R,6S)-6-{[2-(5-{2-[(3R,5R)-3,5-Dimethylmorpholine-4-carbonyl]-4-fluorophenoxy}pyrimidin-4-yl)-2,7-diazaspiro[3.5]nonan-7-yl]methyl}oxan-3-yl]sulfamoyl}-N-methylcyclopropanamine], the Ki is less than 1 nM.
Still for that read-out and setting: the same measure for `Cc1nc(S(=O)(=O)N[C@@H]2CC[C@@H](CN3CCC4(CC3)CN(c3ncncc3Oc3ccc(F)cc3C(=O)N(C(C)C)[C@H]3CCOC3)C4)OC2)cs1` [Compound 135, 5-Fluoro-N-isopropyl-2-((4-(7-(((2S,5R)-5-((2-methylthiazole)-4-sulfonamido)tetrahydro-2H-pyran-2-yl)methyl)-2,7-diazaspiro[3.5]nonan-2-yl)pyrimidin-5-yl)oxy)-N-((S)-tetrahydrofuran-3-yl)benzamide]: less than 1 nM; for `CCN(C(=O)c1cc(F)ccc1Oc1cncnc1N1CC2(CCN(C[C@@H]3CC[C@@H](NS(=O)(=O)c4ccc(=O)n(C)c4)CO3)CC2)C1)C(C)C` [Compound 74, N-Ethyl-5-fluoro-N-isopropyl-2-((4-(7-(((2S,5R)-5-((1-methyl-6-oxo-1,6-dihydropyridine)-3-sulfonamido)tetrahydro-2H-pyran-2-yl)methyl)-2,7-diazaspiro[3.5]nonan-2-yl)pyrimidin-5-yl)oxy)benzamide]: less than 1 nM; for `CC(C)N(CC(F)F)C(=O)c1cc(F)ccc1Oc1cncnc1N1CC2(CCN(C[C@@H]3CC[C@@H](NS(=O)(=O)N4CC(O)C4)CO3)CC2)C1` [Compound 237, N-(2,2-Difluoroethyl)-5-fluoro-2-((4-(7-(((2S,5R)-5-((3-hydroxyazetidine)-1-sulfonamido)tetrahydro-2H-pyran-2-yl)methyl)-2,7-diazaspiro[3.5]nonan-2-yl)pyrimidin-5-yl)oxy)-N-isopropylbenzamide]: less than 1 nM.
Take `CC(C)N(C(=O)c1cc(F)ccc1Oc1cncnc1N1CC2(CCN(C[C@@H]3CC[C@@H](NS(=O)(=O)N4CCC4)CO3)CC2)C1)[C@@H]1CCOC1` [Compound 168, 2-((4-(7-(((2S,5R)-5-(Azetidine-1-sulfonamido)tetrahydro-2H-pyran-2-yl)methyl)-2,7-diazaspiro[3.5]nonan-2-yl)pyrimidin-5-yl)oxy)-5-fluoro-N-isopropyl-N-((R)-tetrahydrofuran-3-yl)benzamide]: the Ki was less than 1 nM.
For `CCS(=O)(=O)N[C@@H]1CC[C@@H](CN2CCC3(CC2)CN(c2ncncc2Oc2ccc(F)cc2C(=O)N2[C@H](C)CCC[C@@H]2C)C3)OC1` [Compound 36, N-((3R,6S)-6-((2-(5-(2-((2S,6R)-2,6-dimethylpiperidine-1-carbonyl)-4-fluorophenoxy)pyrimidin-4-yl)-2,7-diazaspiro[3.5]nonan-7-yl)methyl)tetrahydro-2H-pyran-3-yl)ethanesulfonamide], the EC50 was less than 50 nM and the Ki is less than 1 nM.
For `CC(C)N(C(=O)c1cc(F)ccc1Oc1cncnc1N1CC2(CCN(C[C@@H]3CC[C@@H](NS(=O)(=O)N4CC5(CCO5)C4)CO3)CC2)C1)C(C)C` [Compound 221, 2-((4-(7-(((2S,5R)-5-(1-Oxa-6-azaspiro[3.3]heptane-6-sulfonamido)tetrahydro-2H-pyran-2-yl)methyl)-2,7-diazaspiro[3.5]nonan-2-yl)pyrimidin-5-yl)oxy)-5-fluoro-N,N-diisopropylbenzamide], the Ki is less than 1 nM.
